In PubChem BioAssay AID248 (DTP/NCI, 2004):
Several values for one entry are separate records, joined by “and”; a condition that tells them apart may be missing. Equal entries are not always repeated. Inconclusive results and toxic doses are left out. Rule as the data show it: active = T/C of 150% or more; inactive = T/C below 125%.

Tested on: L1210 leukemia ip in BDF1 mice, survival T/C
Assay: NCI In Vivo Anticancer Drug Screen. Data for tumor model L1210 Leukemia (intraperitoneal) in B6D2F1 (BDF1) mice
Settings: endpoint: mean survival time, higher = longer survival
Summary of the method: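 Ratio derived from survival: compound-dosed mice over vehicle-dosed mice, all bearing a transplantable tumor.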

[1] = dose: 100.0 mg/kg/injection, schedule: Q04DX002 (ip), vehicle: saline
[2] = dose: 200.0 mg/kg/injection, schedule: Q04DX002 (ip), vehicle: saline
[3] = dose: 400.0 mg/kg/injection, schedule: Q04DX002 (ip), vehicle: saline
[4] = dose: 100.0 mg/kg/injection, schedule: Q01DX001 (ip), vehicle: Klucel (hydroxypropylcellulose) (HPC)
[5] = dose: 200.0 mg/kg/injection, schedule: Q01DX001 (ip), vehicle: Klucel (hydroxypropylcellulose) (HPC)
[6] = dose: 400.0 mg/kg/injection, schedule: Q01DX001 (ip), vehicle: Klucel (hydroxypropylcellulose) (HPC)
[7] = dose: 100.0 mg/kg/injection, schedule: Q01DX009 (ip), vehicle: Klucel (hydroxypropylcellulose) (HPC)
[8] = dose: 200.0 mg/kg/injection, schedule: Q01DX009 (ip), vehicle: Klucel (hydroxypropylcellulose) (HPC)
[9] = dose: 400.0 mg/kg/injection, schedule: Q01DX009 (ip), vehicle: Klucel (hydroxypropylcellulose) (HPC)
[10] = dose: 100.0 mg/kg/injection, schedule: Q01DX001 (ip), vehicle: saline
[11] = dose: 200.0 mg/kg/injection, schedule: Q01DX001 (ip), vehicle: saline
[12] = dose: 400.0 mg/kg/injection, schedule: Q01DX001 (ip), vehicle: saline
[13] = dose: 100.0 mg/kg/injection, schedule: Q01DX009 (ip), vehicle: saline
[14] = dose: 100.0 mg/kg/injection, schedule: Q04DX003 (ip), vehicle: saline
[15] = dose: 200.0 mg/kg/injection, schedule: Q01DX009 (ip), vehicle: saline
[16] = dose: 200.0 mg/kg/injection, schedule: Q04DX003 (ip), vehicle: saline
[17] = dose: 400.0 mg/kg/injection, schedule: Q01DX009 (ip), vehicle: saline
[18] = dose: 400.0 mg/kg/injection, schedule: Q04DX003 (ip), vehicle: saline
[19] = dose: 100.0 mg/kg/injection, schedule: Q04DX003 (ip), vehicle: saline with Tween-80
[20] = dose: 200.0 mg/kg/injection, schedule: Q04DX003 (ip), vehicle: saline with Tween-80
[21] = dose: 400.0 mg/kg/injection, schedule: Q04DX003 (ip), vehicle: saline with Tween-80
[22] = dose: 50.0 mg/kg/injection, schedule: Q04DX003 (ip), vehicle: Klucel (hydroxypropylcellulose) (HPC)
[23] = dose: 100.0 mg/kg/injection, schedule: Q04DX003 (ip), vehicle: Klucel (hydroxypropylcellulose) (HPC)
[24] = dose: 200.0 mg/kg/injection, schedule: Q04DX003 (ip), vehicle: Klucel (hydroxypropylcellulose) (HPC)
[25] = dose: 200.0 mg/kg/injection, schedule: Q01DX001 (ip), vehicle: carboxymethylcellulose (CMC)
[26] = dose: 400.0 mg/kg/injection, schedule: Q01DX001 (ip), vehicle: carboxymethylcellulose (CMC)
[27] = dose: 400.0 mg/kg/injection, schedule: Q04DX003 (ip), vehicle: Klucel (hydroxypropylcellulose) (HPC)

Measured: T/C

CCCCOCC(O)CNCCN (stereo not given)
inactive: [1] 108 % of control | [2] 90 % of control | [3] 104 % of control

Cc1nc(N)[nH]c(=O)c1CCCNc1ccc(CCC2(CCl)OCCO2)cc1
inactive: dose: 50.0 mg/kg/injection, schedule: Q01DX Z (ip), vehicle: carboxymethylcellulose (CMC) 98 % of control | dose: 100.0 mg/kg/injection, schedule: Q01DX Z (ip), vehicle: carboxymethylcellulose (CMC) 101 % of control | dose: 200.0 mg/kg/injection, schedule: Q01DX Z (ip), vehicle: carboxymethylcellulose (CMC) 101 % of control | dose: 400.0 mg/kg/injection, schedule: Q01DX Z (ip), vehicle: carboxymethylcellulose (CMC) 90 % of control

CCOC(=O)CC(=O)c1ccc(OC)cc1
inactive: [4] 101 % of control | [5] 106 % of control | [6] 107 % of control

Cc1cc([N+](=O)[O-])ccc1NC(=O)C(Br)C(Br)C(=O)O (stereo not given)
inactive: dose: 25.0 mg/kg/injection, schedule: Q01DX009 (ip), vehicle: other 101 % of control | dose: 50.0 mg/kg/injection, schedule: Q01DX009 (ip), vehicle: other 102 % of control | dose: 100.0 mg/kg/injection, schedule: Q01DX009 (ip), vehicle: other 93 % of control and 94 % of control

CCOC(=O)NCc1cccc2ccc(Cl)cc12
inactive: [4] 95 % of control | [5] 90 % of control | [6] 86 % of control

Cc1cccc(SC(=O)Nc2cc([N+](=O)[O-])ccc2Cl)c1
inactive: [7] 92 % of control | [8] 98 % of control | [9] 88 % of control

CC(C)CCOC(=O)C1OC1(C)c1ccccc1 (stereo not given)
inactive: [1] 101 % of control | [2] 93 % of control | [3] 112 % of control

COc1cc(CCC(=O)O)cc(/C=N/NC(N)=O)c1O
inactive: [10] 101 % of control | [11] 89 % of control | [12] 95 % of control

COc1cccc(CN(C)CCC(=O)O)c1
inactive: [13] 97 % of control | [14] 105 % of control | [15] 94 % of control | [16] 109 % of control | [17] 101 % of control | [18] 105 % of control

Cc1ccc(S(N)(=O)=O)cc1
inactive: [19] 98 % of control | [20] 98 % of control | [21] 96 % of control

O=C(O)C(Br)CBr (stereo not given)
inactive: [10] 90 % of control

CCCCCCCCCCCCCCNCCCCCCCCCCCCCC
inactive: dose: 50.0 mg/kg/injection, schedule: Q01DX009 (ip), vehicle: Klucel (hydroxypropylcellulose) (HPC) 95 % of control | [22] 105 % of control | [7] 101 % of control | [23] 101 % of control | [24] 95 % of control

Nc1n[n+](=O)c2ccccc2n1O
inactive: dose: 1.17 mg/kg/injection, schedule: Q01DX001 (ip), vehicle: other 95 % of control | dose: 2.34 mg/kg/injection, schedule: Q01DX001 (ip), vehicle: other 101 % of control | dose: 4.69 mg/kg/injection, schedule: Q01DX001 (ip), vehicle: other 102 % of control

c1cc2c(c3c1CC1c4cc5c(cc4CCN1C3)OCO5)OCO2 (stereo not given)
inactive: [10] 86 % of control

O=C1c2ccccc2-c2cc(Br)c(NC(Cl)Cl)cc21
inactive: [19] 94 % of control | [20] 93 % of control | [21] 94 % of control

CCCCn1cnc(=S)c2[nH]cnc21
inactive: [22] 98 % of control | [23] 114 % of control | dose: 133.0 mg/kg/injection, schedule: Q04DX003 (ip), vehicle: Klucel (hydroxypropylcellulose) (HPC) 118 % of control

NCCN1CCN=C1C1=NCCN1CCN
inactive: [13] 98 % of control | [14] 100 % of control | [15] 93 % of control | [16] 98 % of control | [17] 98 % of control | [18] 96 % of control

O=S(=O)(c1ccccc1)C1CCCCC1Cl (stereo not given)
inactive: dose: 100.0 mg/kg/injection, schedule: Q01DX001 (ip), vehicle: carboxymethylcellulose (CMC) 95 % of control | [25] 98 % of control | [26] 101 % of control

O=c1c(CO)c[nH]cc1CO
inactive: [10] 101 % of control | [11] 103 % of control | [12] 107 % of control

CC(=O)c1c(O)cc(C)c(Cl)c1C
inactive: [7] 94 % of control | [8] 100 % of control | [9] 103 % of control

CCCCCc1ccc(/C(C)=N/NC(=O)c2ccc[n+](C)c2)cc1
inactive: dose: 6.25 mg/kg/injection, schedule: Q04DX003 (ip), vehicle: saline 101 % of control | dose: 12.5 mg/kg/injection, schedule: Q04DX003 (ip), vehicle: saline 95 % of control | dose: 25.0 mg/kg/injection, schedule: Q04DX003 (ip), vehicle: saline with Tween-80 98 % of control | dose: 25.0 mg/kg/injection, schedule: Q04DX003 (ip), vehicle: saline 95 % of control

CCOC(=O)/C=C(\C)CO (tested in a mixture with another compound)
inactive: dose: 50.0 mg/kg/injection, schedule: Q01DX009 (ip), vehicle: saline with Tween-80 93 % of control | dose: 100.0 mg/kg/injection, schedule: Q01DX009 (ip), vehicle: saline with Tween-80 93 % of control | dose: 200.0 mg/kg/injection, schedule: Q01DX009 (ip), vehicle: saline with Tween-80 101 % of control

O=C1C(O)=C(Cl)C(=O)C(OC2=C(Cl)C(=O)C(OC3=C(Cl)C(=O)C(OC4=C(Cl)C(=O)C(Cl)=C(Cl)C4=O)=C(Cl)C3=O)=C(Cl)C2=O)=C1Cl
inactive: [14] 97 % of control | [16] 105 % of control

COC(C)C1C([N+](C)(C)C)CS1(=O)=O (stereo not given)
inactive: dose: 75.0 mg/kg/injection, schedule: Q01DX001 (ip), vehicle: saline 97 % of control | dose: 150.0 mg/kg/injection, schedule: Q01DX001 (ip), vehicle: saline 94 % of control

CC(=O)Nc1nnc(/C=C/c2ccc([N+](=O)[O-])o2)s1
inactive: [23] 87 % of control | [24] 89 % of control | [27] 100 % of control

CCN(CC)CC(=O)NCC(CC)(CCN1CCOCC1)c1cccc2ccccc12 (stereo not given)
inactive: [14] 97 % of control | [16] 95 % of control

CCCCC(=O)OC1CC(C)CCC1C(C)C (stereo not given)
inactive: [7] 98 % of control | [23] 93 % of control | [8] 106 % of control | [24] 96 % of control | [9] 98 % of control | [27] 93 % of control

Cn1c(N)c(N=Cc2ccc(C=Nc3c(N)n(C)c(=O)n(C)c3=O)cc2)c(=O)n(C)c1=O
inactive: dose: 50.0 mg/kg/injection, schedule: Q01DX001 (ip), vehicle: carboxymethylcellulose (CMC) 88 % of control | [25] 96 % of control | [26] 90 % of control
